Laboratory results: US11795510B2, “Identification of epigenomic reprogramming in cancer and uses thereof” (The Johns Hopkins University, priority 2016, dated 2023)
Entries after “also recorded” stand apart in the source; their conditions may differ.

Key:
[1] = test system: local-regional PDAC samples; test: 3-D suspension tumorsphere assay, local-regional PDACs; assay type: cell-based, human
Protocol: 3-D matrigel assays were adapted from Cheung et al. (Control of alveolar differentiation by the lineage transcription factors GATA6 and HOPX inhibits lung adenocarcinoma metastasis. Cancer Cell 23, 725-38 (2013)). Briefly, 2-D cultures were trypsinized into single cells, 4,000cells/mL were suspended and thoroughly mixed in ice-cold DMEM containing 5% matrigel (BD systems) and 2% FBS (+/−DMSO/6AN as needed), 500 ul plated in quadruplicate into 24 well ultra-low attachment plates, and incubated for at least 7 days to allow tumor growth. Well-formed tumors were then counted and representative photographs taken with an EVOS instrument. 3-D suspension tumorsphere assays were performed with 20,000 starting cells/well in ultra-low attachment 6 well plates as described, and tumors counted/photographed after at least 7 days of tumor growth.

A38Lg cells = test: RNA-seq of control (DMSO) and 6AN treated cells, differentially expressed genes; assay type: cell-based, human
Protocol: RNAi experiments were performed with siRNA transfections (Oligofectamine, Life Technologies) using negative control siRNA (Sigma, SIC001) and pre-designed siRNA oligonucleotides against indicated genes in parallel (Sigma, PGD: SASI_Hs02 00334150, CDH2: SASI_Hs01_00153995, TOP2B: SASI_Hs02_00311874). siRNAs against mutant KRAS^G12V (CUACGCCAACAGCUCCAAC) (SEQ ID NO:1) were custom designed. Cells were incubated with siRNAs for 4 days after transfection and harvested. For drug treatments in 2-D, cells were grown to 70-80% confluency and treated for 3 days with 250 uM 6AN or DMSO negative control.
Tests for statistical significance (two-tailed students t-test) were performed on data collected from technical replicate (performed in parallel at the same time) or biological replicate (performed at different times) experiments as indicated in the figure legends using excel software for western blot densitometry, MTT assays, and tumor measurements. Whole genome bisulfite sequencing and RNA-seq were performed with HiSeq instruments (Illumina) as described in Hansen et al. (Increased methylation variation in epigenetic domains across cancer types. Nat Genet 43, 768-75 (2011)). ChIP assays were performed as previously described for fixed cells with sonication. For ChIP-qPCR, equal amounts of paired input/IP DNA were amplified by real-time PCR (Roche LightCycler96) and fold enrichments calculated. Primer sequences are listed in Supplementary Table 11. […] IP sequencing reads were normalized to their corresponding inputs. Sequencing procedures, bioinformatics methods including domain calls, and statistical analyses are described in detail within the supplementary methods section.
RNA-Seq data processing. 100 bp paired-end HiSeq2000 sequencing reads were aligned against human genome (hg19) by OSA (version 2.0.1) with default parameters. After alignment, only uniquely aligned reads were kept for further analysis. Gene annotation information was downloaded from ENSEMBL (ensembl.com, release 66). Reads count for each gene of all samples were estimated using HTSeq (huber.embl.de/users/anders/HTSeq/doc/overview.html) and then were used to identify differentially expressed (DE) genes using DESeq package. Genes with FDR<0.01 and fold-change>1.5 were considered DE genes.

[2] = genes down in A38Lg vs A38Per and down in 6AN vs DMSO treated A38Lg, RNA-seq DE genes
[3] = genes down in A38Lg vs A38Per and up in 6AN vs DMSO treated A38Lg, RNA-seq DE genes
[4] = genes recurrently down vs. A38Per and down in 6AN treated A38Lg cells, out of all 6AN down genes
[5] = genes recurrently down vs. A38Per and down in 6AN treated A38Lg cells, out of all recurrent down genes
[6] = genes recurrently down vs. A38Per and up in 6AN treated A38Lg cells, out of all 6AN up genes
[7] = genes recurrently down vs. A38Per and up in 6AN treated A38Lg cells, out of all recurrent down genes
[8] = genes recurrently up across all samples vs. A38Per and down in 6AN vs. DMSO treated A38Lg cells, out of all 6AN down genes
[9] = genes recurrently up vs. A38Per and down in 6AN treated A38Lg cells, out of all recurrent up genes
[10] = genes recurrently up vs. A38Per and up in 6AN treated A38Lg cells, out of all recurrent up genes
[11] = genes up in A38Lg vs A38Per and down in 6AN vs DMSO treated A38Lg, RNA-seq DE genes
[12] = genes up in A38Lg vs A38Per and up in 6AN vs DMSO treated A38Lg, RNA-seq DE genes

SMILES: NC(=O)c1ccc(N)nc1 [6AN, 6-aminonicotinamide]
- tumor formation in 3-D suspension tumorsphere assays [1]: minimal effects; also recorded: did not interfere
- Coregulated/6AN down (38Lg down/6AN down): coregulated genes / all 6AN down genes (A38Lg cells; [2]): 277/1968
- Coregulated/38Lg down (38Lg down/6AN down): coregulated genes / all 38Lg down genes (A38Lg cells; [2]): 277/4402
- Coregulated/6AN down (38Lg down/6AN down), percent (A38Lg cells; genes down in A38Lg vs A38Per and down in 6AN vs DMSO treated A38Lg, share of 6AN down genes): (14%)
- Coregulated/38Lg down (38Lg down/6AN down), percent (A38Lg cells; genes down in A38Lg vs A38Per and down in 6AN vs DMSO treated A38Lg, share of 38Lg down genes): (0.06%)
- Coregulated/6AN up (38Lg down/6AN up): coregulated genes / all 6AN up genes (A38Lg cells; [3]): 915/2192
- Coregulated/38Lg down (38Lg down/6AN up): coregulated genes / all 38Lg down genes (A38Lg cells; [3]): 915/4402
- Coregulated/6AN up (38Lg down/6AN up), percent (A38Lg cells; genes down in A38Lg vs A38Per and up in 6AN vs DMSO treated A38Lg, share of 6AN up genes): (42%)
- Coregulated/38Lg down (38Lg down/6AN up), percent (A38Lg cells; genes down in A38Lg vs A38Per and up in 6AN vs DMSO treated A38Lg, share of 38Lg down genes): (21%)
- Recurrent Down/6AN Down: Coregulated/6AN down (gene count ratio) (A38Lg cells; [4]): 111/1968
- Recurrent Down/6AN Down: Coregulated/6AN down (percent) (A38Lg cells; [4]): (0.06%)
- Recurrent Down/6AN Down: Coregulated/Recurrent down (gene count ratio) (A38Lg cells; [5]): 111/1842
- Recurrent Down/6AN Down: Coregulated/Recurrent down (percent) (A38Lg cells; [5]): (0.06%)
- Recurrent Down/6AN Up: Coregulated/6AN up (gene count ratio) (A38Lg cells; [6]): 332/2192
- Recurrent Down/6AN Up: Coregulated/6AN up (percent) (A38Lg cells; [6]): (15%)
- Recurrent Down/6AN Up: Coregulated/Recurrent down (gene count ratio) (A38Lg cells; [7]): 332/1842
- Recurrent Down/6AN Up: Coregulated/Recurrent down (percent) (A38Lg cells; [7]): (18%)
- Recurrent Up/6AN Down: Coregulated/6AN down (gene count ratio) (A38Lg cells; [8]): 255/1968
- Recurrent Up/6AN Down: Coregulated/6AN down (percent) (A38Lg cells; [8]): (13%)
- Recurrent Up/6AN Down: Coregulated/Recurrent up (gene count ratio) (A38Lg cells; [9]): 255/891
- Recurrent Up/6AN Down: Coregulated/Recurrent up (percent) (A38Lg cells; [9]): (28.6%)
- Recurrent Up/6AN Up: Coregulated/6AN up (gene count ratio) (A38Lg cells; genes recurrently up vs. A38Per and up in 6AN treated A38Lg cells, out of all 6AN up genes): 82/2192
- Recurrent Up/6AN Up: Coregulated/Recurrent up (gene count ratio) (A38Lg cells; [10]): 82/891
- Recurrent Up/6AN Up: Coregulated/Recurrent up (percent) (A38Lg cells; [10]): (9%)
- Coregulated/6AN down (38Lg up/6AN down): coregulated genes / all 6AN down genes (A38Lg cells; [11]): 1032/1968
- Coregulated/38Lg up (38Lg up/6AN down): coregulated genes / all 38Lg up genes (A38Lg cells; [11]): 1032/4368
- Coregulated/6AN down (38Lg up/6AN down), percent (A38Lg cells; genes up in A38Lg vs A38Per and down in 6AN vs DMSO treated A38Lg, share of 6AN down genes): (52%)
- Coregulated/38Lg up (38Lg up/6AN down), percent (A38Lg cells; genes up in A38Lg vs A38Per and down in 6AN vs DMSO treated A38Lg, share of 38Lg up genes): (24%)
- Coregulated/6AN up (38Lg up/6AN up): coregulated genes / all 6AN up genes (A38Lg cells; [12]): 379/2192
- Coregulated/38Lg up (38Lg up/6AN up): coregulated genes / all 38Lg up genes (A38Lg cells; [12]): 379/4368
- Coregulated/6AN up (38Lg up/6AN up), percent (A38Lg cells; genes up in A38Lg vs A38Per and up in 6AN vs DMSO treated A38Lg, share of 6AN up genes): (17%)
- Coregulated/38Lg up (38Lg up/6AN up), percent (A38Lg cells; genes up in A38Lg vs A38Per and up in 6AN vs DMSO treated A38Lg, share of 38Lg up genes): (0.09%)
